We go through seven compounds from patent publication EP0029303B1, “1,2,4-Triazole derivatives, processes for their production and pharmaceutical compositions containing them” (GLAXO GROUP LIMITED, priority 1979, dated 1981).

In this experiment the test system is histamine induced gastric acid secretion. Description: inhibition of histamine induced gastric acid secretion in the perfused rat stomach preparation. To be noted: sodium pentobarbitone anaesthesia. Type of experiment: in vivo. The text has this:
Certain novel heterocyclic derivatives having a structure different from the compounds referred to above, have now been found which have potent activity as H2-antagonists.
The results obtained for a representative number of compounds according to the invention are given below: […]
The term ED50 denotes the midpoint of the dose-response relation. Consider `CCCCNC(=O)CCCCCNCc1cccc(OCCCNc2nc(N)nn2C)c1` [1 (g)], for which the ED50 amounted to 0.25 mg/kg.
In the case of `Cn1nc(N)nc1NCCCOc1cccc(CNCc2ccc[nH]2)c1` [2 (d), 1-methyl-N5-[3-[3-[(1H-pyrrol-2-yl-methyl)amino-methyl]phenoxy]propyl]-1H-1,2,4-triazole-3,5-diamine], the median effective dose (ED50) was determined as 0.014 mg/kg.
With `CCCCCCCCCCCCNCc1cccc(OCCCNc2nc(N)nn2C)c1` [1 (d), 1-methyl-N^5-[3-[3-[(dodecylamino)methyl]phenoxy]-propyl]-1H-1,2 4-triazoie-3,5-diamine] the figure was 0.075 mg/kg; with `Cn1nc(N)nc1NCCCOc1cccc(CNCc2ccco2)c1` [1 (b), 1-methyl-N^5-[3-[3-[(2-furanylmethyl)aminomethyl]phenoxy]propyl)-1H-1,2,4-triazole-3,5-diamine], 0.095 mg/kg.
With `Cn1nc(N=Cc2ccncc2)nc1NCCCOc1cccc(CNCc2ccco2)c1` [Example 5, 1-Methyl-N3-(4-pyridylmethylene)-N^5-[3-[3-[(2-furanylmethyt)-aminomethyl)phenoxy]propyl]-1 H-1,2,4-triazole-3,5-diamine] the figure was 0.18 mg/kg.
`Cn1nc(N)nc1NCCCOc1cccc(CNCc2ccc(CO)o2)c1` [Example 2 (a), 5-[[3-[3-[(3-Amino-1-methyl-1,2,4-triazol-5-yl)-amino]propoxy]phenylmethyl]aminomethyl]furan-2-methanol]: the ED50 was found to be 0.19 mg/kg.
Compound `CN(Cc1ccco1)Cc1ccc(CSCCNc2nc(CO)nn2C)o1` [Example 6, 5-[[2-[[[5-[[N-Methyl(2-furanylmethyl)amino]methyl]-2-furanyl]methyl]thio]ethyl]amino]-1-methyl-1 H-1,2,4-triazole-3-methanol] had an ED50 of 0.077 mg/kg.
